What was measured:
human estrogen receptor = biological target: T1, human estrogen receptor (Homo sapiens, UniProt P03372); experiment: Estrogen Receptor Assay: 2×VIT ERE Transfection Assay (luciferase reporter in CHO cells); format: cell-based; details: 1 μM compound alone, 24 h, CHO cells stably transfected with human estrogen receptor, luciferase normalised to B-galactosidase, n=8
T1 construct: expressed in transfected cells; host or cells: Chinese Hamster Ovary (CHO) cells, stably transfected
T1 sequence (P03372 1-595): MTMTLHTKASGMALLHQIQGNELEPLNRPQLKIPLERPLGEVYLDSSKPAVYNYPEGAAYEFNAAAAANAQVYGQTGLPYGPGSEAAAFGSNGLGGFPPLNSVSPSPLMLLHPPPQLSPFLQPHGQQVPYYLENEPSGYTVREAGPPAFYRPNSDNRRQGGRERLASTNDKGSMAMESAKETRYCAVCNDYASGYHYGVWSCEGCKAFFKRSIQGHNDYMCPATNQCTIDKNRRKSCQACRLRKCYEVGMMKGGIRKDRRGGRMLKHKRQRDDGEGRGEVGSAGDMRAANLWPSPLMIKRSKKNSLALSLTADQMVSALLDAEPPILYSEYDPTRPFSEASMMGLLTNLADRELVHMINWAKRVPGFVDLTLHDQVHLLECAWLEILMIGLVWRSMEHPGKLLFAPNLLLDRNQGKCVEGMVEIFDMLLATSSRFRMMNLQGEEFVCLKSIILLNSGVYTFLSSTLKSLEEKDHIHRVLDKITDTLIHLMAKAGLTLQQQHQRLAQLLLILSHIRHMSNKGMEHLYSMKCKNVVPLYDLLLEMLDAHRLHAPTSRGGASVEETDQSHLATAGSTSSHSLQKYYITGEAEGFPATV
Protocol: Enhancement of luciferase gene expression in this model is dependent upon estrogen receptor (ER) interaction with a vitellogenin gene estrogen responsive element (ERE) capable of enhancing basal promoter activity. This is a sensitive and rapid methodology to assess estrogenic/antiestrogenic potency of compounds.
48 h prior to treatment the growth medium is replaced with DMEM lacking phenol red+10% dextran coated charcoal stripped FBS (treatment medium). Cells are plated at a density of 5000 cells/well in 96-well plates containing 200 μL of medium/well.
Calcium Phosphate Transfection: Reporter DNA (Promega plasmid pGL2 containing two tandem copies of the vitellogenin ERE in front of the minimal thymidine kinase promoter driving the luciferase gene) is combined with the B-galactosidase expression plasmid pCH110 (Pharmacia) and carrier DNA (pTZ18U) in the following ratio: 10 μg of reporter DNA, 5 μg of pCH110 DNA, 5 μg of pTZ18U, and 20 μg of DNA/1 mL of transfection solution. […] 20 μL of this mixture is added to each well of cells and remains on the cells for 16 h. […] Each treatment condition is performed on 8 wells (n=8) which are incubated for 24 h prior to luciferase assay.
Luciferase Assay: After 24 h exposure to compounds, the media is removed and each well is washed 2× with 125 μL of PBS lacking Mg++ and Ca++. After removing the PBS, 25 μL of Promega lysis buffer is added to each well and allowed to stand at room temperature for 15 min, followed by 15 min at −80 deg. C. and 15 min at 37 deg. C. 20 μL of lysate is tranferred to an opaque 96-well plate for luciferase activity evaluation and the remaining lysate (5 μL) is used for B-galactosidase activity evaluation (normalize transfection). The luciferan substrate (Promega) added is 100 μL aliquots to each well automatically by the luminometer and the light produced (relative light units) is read 10 seconds after addition. The data is logged and automatically sent to a JMP statistical program for analysis. A hard copy printout is also produced at the time of the assay.
B-galactosidase Assay: To the remaining 5 μL of lysate 45 μL of PBS is added. 50 μl of Promega B-galactosidase 2×assay buffer is added, mixed well and incubated at 37 deg. C. for 1 h. A plate containing a standard curve (0.1 to 1.5 milliunits in triplicate) is set up for each experimental run. The plates are analyzed on a Molecular Devices spectrophotometric plate reader at 410 nm. The optical densities for the unknowns are converted to milliunits of activity by mathematical extrapolation from the standard curve. Analysis of Results: The luciferase data is generated as relative light units (RLUs) accumulated during a 10 second measurement and is automatically transferred to a JMP (SAS Inc) file where background RLUs are subtracted. The B-galactosidase values are automatically imported into the file and these values are divided into the RLUs to normalize the data. The mean and standard deviation is determined from a n=8 for each treatment.

| Compound | melting point | Estrogenic activity at 1 μM (% of activity of 1 nM 17B-estradiol) (human estrogen receptor) |
| --- | --- | --- |
| Oc1ccccc1-c1cc(-c2ccc(F)c(F)c2)cc(-c2ccc(Cl)cc2)n1 [Example 1, 2-[6-(4-Chloro-phenyl)-4-(3,4-difluoro-phenyl)-pyridin-2-yl]-phenol] | 146 to 148 °C | 14% |
| Oc1ccccc1-c1cc(-c2ccc(F)c(F)c2)cc(-c2ccc3ccccc3c2)n1 [Example 2, 2-[4-(3,4-Difluoro-phenyl)-6-naphthalen-2-yl-pyridin-2-yl]-phenol] | 165 to 167 °C | – |
| Oc1ccccc1-c1cc(-c2ccc(F)c(F)c2)cc(-c2ccco2)n1 [Example 3, 2-[4-(3,4-Difluoro-phenyl)-6-furan-2-yl-pyridin-2-yl]-phenol] | 147 to 148 °C | 10% |
| Oc1ccccc1-c1cc(-c2ccc3c(c2)OCO3)cc(-c2ccc3ccccc3c2)n1 [Example 4, 2-(4-Benzo[1,3]dioxol-5-yl-6-naphthalen-2-yl-pyridin-2-yl)-phenol] | 195 to 196 °C | 22% |
| Oc1ccccc1-c1cc(-c2ccc3c(c2)OCO3)cc(-c2ccsc2)n1 [Example 5, 2-(4-Benzo[1,3]dioxol-5-yl-6-thiophen-3-yl-pyridin-2-yl)-phenol] | 120 to 121 °C | – |
| Oc1ccc(F)cc1-c1cc(-c2ccc(-c3ccccc3)cc2)cc(-c2ccc3ccccc3c2)n1 [Example 6, 2-(4-Biphenyl-4-yl-6-naphthalen-2-yl-pyridin-2-yl)-4-fluoro-phenol] | 187 to 188 °C | – |
| Oc1ccc(F)cc1-c1cc(-c2ccc(-c3ccccc3)cc2)cc(-c2ccncc2)n1 [Example 7, 2-(4-Biphenyl-4-yl-[2,4′]bipyridinyl-6-yl)-4-fluoro-phenol] | – | 6% |
| Oc1cccc(-c2cc(-c3ccc(-c4ccccc4)cc3)cc(-c3ccc4ccccc4c3)n2)c1 [Example 9, 3-(4-Biphenyl-4-yl-6-naphthalen-2-yl-pyridin-2-yl)-phenol] | 174 to 175 °C | – |
| Oc1cccc(-c2cc(C3CCCCC3)cc(-c3ccco3)n2)c1 [Example 10, 3-(4-Cyclohexyl-6-furan-2-yl-pyridin-2-yl)-phenol] | – | 36% |

Reference: patent US6384058B1, “2,4,6-trisubstituted pryridines with estrogenic activity and methods for the solid phase synthesis thereof” (American Home Products Corporation, priority 1997, dated 2002)
